The values that follow come from patent US7888005B2, “Inhibitors of macromolecular activity” (priority 2003, dated 2011).

Test [1] deals with E. coli ribonuclease P RNA. To be noted: literature (Vioque 1989; Mikkelsen et al.); cited from earlier work.
Test [2] concerns strain DM46, which contains the rnpB gene cloned on a high copy plasmid. The test is described as follows: Top agar plate screen of extract dilutions, strain DM46. In kind it is cell-based, E. coli. To be noted: strain DM46 (multicopy rnpB). The procedure:
(§1) Methods. Different strains of E. coli-DH5alpha (DM46 and PTZ/19R) were streaked onto bacto MacConkey agar base plate containing ampicillin at 50 μg/ml. Then a fresh single colony was grown on 5 ml NZY Ap (50 μg/ml) broth at 37° C. overnight. The next day a frozen cell from the above cells was made. 1 ml of a freshly saturated culture was added to a microcentrifuge tube containing 1 ml DMSO (7%). These cells were stored at −80° C. Cells from frozen stocks were streaked out again and one colony from each plate was transferred to 1 ml NZY(amp, 50 μg/ml) broth. The tubes were shaken at 37° C. overnight.
(§2) Top agar (1% tryptone, 0.8% NaCl, 0.7% agar) was used to distribute cells in a thin layer over the surface of a plate. 100 μl of fresh cell was mixed with 2.5 ml top agar. The mixture was then poured into NZY AP (50 μg/ml). Microtiter dishes containing 96-well, were used to prepare serial dilutions in 10% DMSO (1:5, 1:25, 1:125, 1:625) of extracts. A multi-channel pipeting device was used to add 5 μl extract to the top agar plate. Agar plates containing extract were incubated overnight at 37° C. At the end of incubation, inhibition appeared as clear zone around the place that extract was added. Positive extracts from the initial screens were analyzed further. […]

The test system of test [3] is E. coli cell (19R/PTZ) strain containing a single chromosomal copy of the wildtype rnpB gene. The experiment in a line: Top agar plate screen of extract dilutions, strain 19R/PTZ. In kind it is cell-based. To be noted: strain 19R/PTZ (single chromosomal rnpB). The procedure: as §1, §2

On to `NC[C@@H]1O[C@H](O[C@H]2[C@@H](O)[C@H](O[C@@H]3[C@@H](O)[C@H](N)C[C@H](N)[C@H]3O[C@H]3O[C@H](CN)[C@@H](O)[C@H](O)[C@H]3N)O[C@@H]2CO)[C@H](N)[C@@H](O)[C@@H]1O` [Neomycin B], for which the “Inhibition of ribonuclease P RNA reaction” value in test [1] is on record as “micromolar concentrations”.

Turning to `COc1ccc(C[C@H](N)C(=O)N[C@H]2[C@@H](O)[C@H](n3cnc4c(N(C)C)ncnc43)O[C@@H]2CO)cc1` [puromycin], the “Inhibition of growth, in words” value in test [2] and in test [3] was “inhibits the growth of both strains” throughout. For the same molecule, the “Inhibition of ribonuclease P RNA reaction” value in test [1] is on record as “inhibits the catalytic reaction of ribonuclease P RNA”.
